# Source: PubChem BioAssay (NCI)
#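 Grown in 96-well plates, cells were treated for 48 hours with each compound at five concentrations. Insufficient inhibition: endpoint recorded as highest concentration tested. At the GI50, growth is halved. The concentration for full growth arrest is given as TGI.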
# Experiments:
# Experiment in all cases: growth of human tumour cells (NCI), 48 h
# [1] = system: SF-295 CNS
# [2] = system: SW-620 colon
# [3] = system: KM12 colon
# [4] = system: MDA-MB-231 breast
# [5] = system: OVCAR-8 ovarian
# [6] = system: 786-0 renal
# [7] = system: EKVX NSCLC
# [8] = system: OVCAR-4 ovarian
# [9] = system: SNB-75 CNS
# [10] = system: HS 578T breast
# [11] = system: DU-145 prostate
# [12] = system: SK-MEL-28 melanoma
# [13] = system: RXF 393 renal
# [14] = system: CCRF-CEM leukemia
# [15] = system: UACC-257 melanoma
# [16] = system: IGROV1 ovarian
# [17] = system: SK-OV-3 ovarian
# [18] = system: NCI-H226 lung
# [19] = system: OVCAR-3 ovarian
# [20] = system: MCF7 breast
# [21] = system: LOX IMVI melanoma
# [22] = system: SF-539 CNS
# [23] = system: PC-3 prostate
# [24] = system: K-562 leukemia
# [25] = system: HL-60(TB) leukemia
# [26] = system: MOLT-4 leukemia
# [27] = system: U251 CNS
# [28] = system: T-47D breast
# [29] = system: MALME-3M melanoma
# [30] = system: SF-268 CNS
# [31] = system: RPMI-8226 leukemia
# [32] = system: A498 renal
# [33] = system: HOP-92 NSCLC
# [34] = system: SR leukemia
# [35] = system: SK-MEL-5 melanoma
# [36] = system: HCT-116 colon
# [37] = system: HOP-62 NSCLC
# [38] = system: ACHN renal
# [39] = system: TK-10 renal
# [40] = system: NCI-H522 lung
# [41] = system: SNB-19 CNS
# [42] = system: HCC-2998 colon
# [43] = system: SN12C renal
# [44] = system: CAKI-1 renal
# [45] = system: M14 melanoma
# [46] = system: MDA-MB-435
# [47] = system: A549 NSCLC
# [48] = system: UACC-62 melanoma
# [49] = system: HT29 colon
# [50] = system: COLO 205 colon
# [51] = system: HCT-15 colon
# [52] = system: SK-MEL-2 melanoma
# [53] = system: UO-31 renal
# [54] = system: NCI-H23 lung
# [55] = system: NCI/ADR-RES ovarian
# [56] = system: NCI-H460 lung
# [57] = system: BT-549 breast
# [58] = system: OVCAR-5 ovarian
# [59] = system: MDA-N
smiles,measurement,setting,value
COc1cc(C2NC(=O)C(C#N)=C(Nc3cccc(C)c3)S2)ccc1O (stereo not given),GI50,[1],> 100 µM
same,TGI,[1],> 100 µM
same,GI50,[2],> 100 µM
same,TGI,[2],> 100 µM
same,GI50,[3],> 100 µM
same,TGI,[3],> 100 µM
same,GI50,[4],> 100 µM
same,TGI,[4],> 100 µM
same,GI50,[5],> 100 µM
same,TGI,[5],> 100 µM
same,GI50,[6],> 100 µM
same,TGI,[6],> 100 µM
same,GI50,[7],> 100 µM
same,TGI,[7],> 100 µM
same,GI50,[8],> 100 µM
same,TGI,[8],> 100 µM
same,GI50,[9],> 100 µM
same,TGI,[9],> 100 µM
same,GI50,[10],> 100 µM
same,TGI,[10],> 100 µM
same,GI50,[11],> 100 µM
same,TGI,[11],> 100 µM
same,GI50,[12],> 100 µM
same,TGI,[12],> 100 µM
same,GI50,[13],> 100 µM
same,TGI,[13],> 100 µM
same,GI50,[14],> 100 µM
same,TGI,[14],> 100 µM
same,GI50,[15],> 100 µM
same,TGI,[15],> 100 µM
same,GI50,[16],> 100 µM
same,TGI,[16],> 100 µM
same,GI50,[17],> 100 µM
same,TGI,[17],> 100 µM
same,GI50,[18],> 100 µM
same,TGI,[18],> 100 µM
same,GI50,[19],> 100 µM
same,TGI,[19],> 100 µM
same,GI50,[20],> 100 µM
same,TGI,[20],> 100 µM
same,GI50,[21],> 100 µM
same,TGI,[21],> 100 µM
same,GI50,[22],> 100 µM
same,TGI,[22],> 100 µM
same,GI50,[23],> 100 µM
same,TGI,[23],> 100 µM
same,GI50,[24],> 100 µM
same,TGI,[24],> 100 µM
same,GI50,[25],> 100 µM
same,TGI,[25],> 100 µM
same,GI50,[26],> 100 µM
same,TGI,[26],> 100 µM
same,GI50,[27],> 100 µM
same,TGI,[27],> 100 µM
same,GI50,[28],> 100 µM
same,TGI,[28],> 100 µM
same,GI50,[29],> 100 µM
same,TGI,[29],> 100 µM
same,GI50,[30],> 100 µM
same,TGI,[30],> 100 µM
same,GI50,[31],> 100 µM
same,TGI,[31],> 100 µM
same,GI50,[32],> 100 µM
same,TGI,[32],> 100 µM
same,GI50,[33],> 100 µM
same,TGI,[33],> 100 µM
same,GI50,[34],> 100 µM
same,TGI,[34],> 100 µM
same,GI50,[35],> 100 µM
same,TGI,[35],> 100 µM
same,GI50,[36],> 100 µM
same,TGI,[36],> 100 µM
same,GI50,[37],> 100 µM
same,TGI,[37],> 100 µM
same,GI50,[38],> 100 µM
same,TGI,[38],> 100 µM
same,GI50,[39],> 100 µM
same,TGI,[39],> 100 µM
same,GI50,[40],> 100 µM
same,TGI,[40],> 100 µM
same,GI50,[41],> 100 µM
same,TGI,[41],> 100 µM
same,GI50,[42],> 100 µM
same,TGI,[42],> 100 µM
same,GI50,[43],> 100 µM
same,TGI,[43],> 100 µM
same,GI50,[44],> 100 µM
same,TGI,[44],> 100 µM
same,GI50,[45],> 100 µM
same,TGI,[45],> 100 µM
same,GI50,[46],> 100 µM
same,TGI,[46],> 100 µM
same,GI50,[47],> 100 µM
same,TGI,[47],> 100 µM
same,GI50,[48],> 100 µM
same,TGI,[48],> 100 µM
same,GI50,[49],> 100 µM
same,TGI,[49],> 100 µM
same,GI50,[50],> 100 µM
same,TGI,[50],> 100 µM
same,GI50,[51],> 100 µM
same,TGI,[51],> 100 µM
same,GI50,[52],> 100 µM
same,TGI,[52],> 100 µM
same,GI50,[53],> 100 µM
same,TGI,[53],> 100 µM
same,GI50,[54],> 100 µM
same,TGI,[54],> 100 µM
same,GI50,[55],> 100 µM
same,TGI,[55],> 100 µM
same,GI50,[56],> 100 µM
same,TGI,[56],> 100 µM
same,GI50,[57],> 100 µM
same,TGI,[57],> 100 µM
same,GI50,[58],> 100 µM
same,TGI,[58],> 100 µM
COc1ccc(/C=C/C(=O)c2ccc(Br)cc2)cc1,TGI,[1],> 100 µM
same,TGI,[2],> 100 µM
same,TGI,[3],> 100 µM
same,TGI,[4],> 100 µM
same,TGI,[5],> 100 µM
same,TGI,[6],> 100 µM
same,TGI,[7],> 100 µM
same,TGI,[8],> 100 µM
same,TGI,[9],> 100 µM
same,TGI,[10],> 100 µM
same,TGI,[11],> 100 µM
same,TGI,[12],> 100 µM
same,TGI,[14],> 100 µM
same,TGI,[16],> 100 µM
same,TGI,[17],> 100 µM
same,TGI,[18],> 100 µM
same,TGI,[20],> 100 µM
same,TGI,[59],> 100 µM
same,TGI,[22],> 100 µM
same,TGI,[23],> 100 µM
same,TGI,[24],> 100 µM
same,TGI,[25],> 100 µM
same,TGI,[26],> 100 µM
same,TGI,[27],> 100 µM
same,TGI,[28],> 100 µM
same,TGI,[29],> 100 µM
same,TGI,[30],> 100 µM
same,TGI,[31],> 100 µM
same,TGI,[32],> 100 µM
same,TGI,[34],> 100 µM
same,TGI,[35],> 100 µM
same,TGI,[36],> 100 µM
same,TGI,[37],> 100 µM
same,TGI,[38],> 100 µM
same,TGI,[39],> 100 µM
same,TGI,[41],> 100 µM
same,TGI,[42],> 100 µM
same,TGI,[43],> 100 µM
same,TGI,[44],> 100 µM
same,TGI,[45],> 100 µM
same,TGI,[46],> 100 µM
same,TGI,[47],> 100 µM
same,TGI,[48],> 100 µM
same,TGI,[49],> 100 µM
same,TGI,[50],> 100 µM
same,TGI,[51],> 100 µM
same,TGI,[52],> 100 µM
same,TGI,[53],> 100 µM
same,TGI,[54],> 100 µM
same,TGI,[55],> 100 µM
same,TGI,[56],> 100 µM
same,TGI,[58],> 100 µM
Cc1ccc(S(=O)(=O)N(CCNC(=O)c2cccc(O)c2O)c2cc3c4c(c2)Oc2cccc5c2C4(C)c2c(cccc2O3)O5)cc1,TGI,[1],> 100 µM
same,TGI,[2],> 100 µM
same,TGI,[3],> 100 µM
same,TGI,[4],> 100 µM
same,TGI,[5],> 100 µM
same,TGI,[6],> 100 µM
same,TGI,[7],> 100 µM
same,TGI,[8],> 100 µM
same,TGI,[9],> 100 µM
same,TGI,[10],> 100 µM
same,TGI,[11],> 100 µM
same,TGI,[12],> 100 µM
same,TGI,[15],> 100 µM
same,TGI,[16],> 100 µM
same,TGI,[17],> 100 µM
same,TGI,[18],65.8 µM
same,TGI,[19],> 100 µM
same,TGI,[20],> 100 µM
same,TGI,[59],> 100 µM
same,TGI,[21],> 100 µM
same,TGI,[22],> 100 µM
same,TGI,[23],> 100 µM
same,TGI,[24],> 100 µM
same,TGI,[26],> 100 µM
same,TGI,[27],> 100 µM
same,TGI,[28],> 100 µM
same,TGI,[29],> 100 µM
same,TGI,[30],> 100 µM
same,TGI,[31],> 100 µM
same,TGI,[32],> 100 µM
same,TGI,[34],> 100 µM
same,TGI,[35],> 100 µM
same,TGI,[36],> 100 µM
same,TGI,[37],> 100 µM
same,TGI,[38],> 100 µM
same,TGI,[39],> 100 µM
same,TGI,[41],> 100 µM
same,TGI,[42],> 100 µM
same,TGI,[43],> 100 µM
same,TGI,[44],> 100 µM
same,TGI,[45],> 100 µM
same,TGI,[46],> 100 µM
same,TGI,[47],> 100 µM
same,TGI,[48],> 100 µM
same,TGI,[49],> 100 µM
same,TGI,[51],> 100 µM
same,TGI,[52],> 100 µM
same,TGI,[53],> 100 µM
same,TGI,[54],> 100 µM
same,TGI,[55],58 µM
same,TGI,[56],> 100 µM
same,TGI,[58],> 100 µM
